By Ki is commonly meant the equilibrium dissociation constant of an inhibitor or competing ligand from its target. The term IC50 denotes the midpoint of a concentration-inhibition curve. The low end stands for higher potency, the high end for lower potency.

The source of these data is patent publication US7659289B2, “Hydroxyethylene-based β-secretase inhibitors and use thereof” (CoMentis, Inc., priority 2004, dated 2010).

One test addresses memapsin 2 (Homo sapiens, UniProt P56817). The test can be described thus: Inhibition of memapsin 2 beta-secretase activity toward fluorogenic substrate FS-2. Format: biochemical. Particulars: pH 4, 37° C., 20 minutes pre-incubation, fluorogenic substrate FS-2, tight-binding model; read-out: M2 Ki.
For the next test, the target named is Cathepsin D (Homo sapiens, UniProt P07339). The test can be described thus: Inhibition of cathepsin D activity (MALDI-TOF, substrate peptide […]). Format: biochemical. Particulars: pH 4.1, 37 degrees C., read-out: Cath D Ki.
Another test has as its system Aβ production. The test can be described thus: Cellular Aβ IC50 determination (Aβ40 sandwich ELISA). Format: cell-based. The following applies: Cricetulus griseus; Aβ40, Chinese hamster ovary cells over-expressing human APP695 with London and Swedish mutations, 24 h incubation. Here is the method: The potency of compounds against memapsin 2 activity was determined in a cellular assay of Aβ production. […] Chinese hamster ovary cells that over-express human APP695 with the London and Swedish mutations were seeded in multi-well plates at 10% confluency. Compounds were dissolved in DMSO to concentrations near 1 mM, and diluted into culture media to a final concentration near 4 μM (final 0.4% DMSO). Compounds were diluted serially and applied to cells in multi-well plates 48 h after seeding. Incubation was continued in 5% CO2 at 37 degrees C. for 24 h. Aliquots were removed and assayed for Aβ40 content using a sandwich ELISA (BioSource International). Amount of Aβ40 over the range of concentration of compounds, relative to control incubations, were fit to a 4-parameter IC50 model.

memapsin 2, sequence (P56817 46-501): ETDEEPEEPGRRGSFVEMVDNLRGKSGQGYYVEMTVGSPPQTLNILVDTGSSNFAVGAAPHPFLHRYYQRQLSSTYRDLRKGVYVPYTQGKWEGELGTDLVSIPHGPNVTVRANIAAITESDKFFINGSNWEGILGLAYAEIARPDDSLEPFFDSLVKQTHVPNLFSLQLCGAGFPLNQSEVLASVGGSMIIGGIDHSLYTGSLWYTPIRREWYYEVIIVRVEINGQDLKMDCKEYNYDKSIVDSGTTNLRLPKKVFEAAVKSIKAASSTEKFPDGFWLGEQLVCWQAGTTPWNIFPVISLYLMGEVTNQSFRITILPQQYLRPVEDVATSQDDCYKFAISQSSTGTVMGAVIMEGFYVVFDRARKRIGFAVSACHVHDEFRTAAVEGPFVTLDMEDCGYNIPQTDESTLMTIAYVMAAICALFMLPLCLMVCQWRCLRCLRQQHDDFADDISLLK
Cathepsin D, sequence (P07339 65-412, species assumed): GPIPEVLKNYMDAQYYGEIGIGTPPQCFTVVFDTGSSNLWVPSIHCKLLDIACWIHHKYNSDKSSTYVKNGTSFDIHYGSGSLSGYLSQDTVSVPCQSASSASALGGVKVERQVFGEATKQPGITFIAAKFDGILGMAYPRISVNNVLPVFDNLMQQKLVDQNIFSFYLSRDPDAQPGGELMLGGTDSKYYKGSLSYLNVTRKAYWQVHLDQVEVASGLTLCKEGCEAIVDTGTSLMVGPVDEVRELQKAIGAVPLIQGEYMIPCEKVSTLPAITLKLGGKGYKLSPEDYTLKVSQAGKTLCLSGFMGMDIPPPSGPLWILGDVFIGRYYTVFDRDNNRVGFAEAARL
Description for Cathepsin D: After equilibration at 37 degrees C., the reactions were initiated by the addition of an aliquot of memapsin 2. Aliquots were removed at time intervals, and combined with an equal volume of MALDI-TOF matrix (α-hydroxycinnamic acid in acetone, 20 mg/ml) and immediately spotted in duplicate onto a stainless-steel MALDI sample plate. MALDI-TOF mass spectrometry was performed on a PE Biosystems Voyager DE instrument at the Molecular Biology Resource Center on campus. The instrument was operated at 25,000 accelerating volts in positive mode with a 150 ns delay. Ions with a mass-to-charge ratio (m/z) were detected in the range of 650-2000 atomic mass units. Data was analyzed by the Voyager Data Explorer module to obtain ion intensity data for mass species of substrates and corresponding products in a given mixture. Relative product formation was calculated as the ratio of signal intensity of the product to the sum of signal intensities of both product and the corresponding substrate. Relative product formed per unit time was obtained from non-linear regression analysis of the data representing the initial 15% formation of product using the model: 1−e^−kT,
where k is the relative hydrolytic rate constant and T is time in seconds. Initial rates were expressed relative to uninhibited controls and fit to a tight-binding model of competitive inhibition as above.
Description for memapsin 2: Potency of compounds were determined by measurement of their inhibition of memapsin 2 activity toward a fluorescent substrate. […] Briefly, assays were performed at pH 4, 37° C., by pre-incubation of memapsin 2 enzyme with compound for 20 minutes. Activity measure was initiated by addition of a fluorogenic substrate FS-2 (Bachem Americas, Torrance, Calif.). Fluorescent signal increase over time was measured as a rate of hydrolysis of the peptide substrate.

With `Cc1cc(C)n(CC(N)C(=O)N[C@@H](CNC(=O)OC(C)(C)C)C(=O)N[C@@H](CC(C)C)[C@@H](O)C[C@@H](C)C(=O)N[C@H](C(=O)NCC(C)C)C(C)C)n1` (stereo partly drawn) [tert-butyl (2S)-2-(2-amino-3-(3,5-dimethyl-1H-pyrazol-1-yl)propanamido)-3-((4S,5S,7R)-5-hydroxy-8-((S)-1-(isobutylamino)-3-methyl-1-oxobutan-2-ylamino)-2,7-dimethyl-8-oxooctan-4-ylamino)-3-oxopropylcarbamate], the Ki on memapsin 2 and at Cathepsin D was 100 to 600 nM throughout. In addition, the IC50 in the test on Aβ production is more than 100000 nM.

For `Cc1csc(C[C@H](C)C(=O)N[C@@H](CNC(=O)OC(C)(C)C)C(=O)N[C@@H](Cc2ccccc2)[C@@H](O)C[C@@H](C)C(=O)N[C@H](C(=O)NCC(C)C)C(C)C)n1` [tert-butyl (S)-3-((2S,3S,5 R)-3-hydroxy-6-((S)-1-(isobutylamino)-3-methyl-1-oxobutan-2-ylamino)-5-methyl-6-oxo-1-phenylhexan-2-ylamino)-2-((S)-2-methyl-3-(4-methylthiazol-2-yl)propanamido)-3-oxopropylcarbamate], the Ki on memapsin 2 and at Cathepsin D was less than 100 nM throughout. In the test on Aβ production, the IC50 fell in the range of 6000 to 100000 nM.

In the case of `CC[C@@H](Cn1nc(C)cc1C)C(=O)N[C@@H](CNC(=O)OC(C)(C)C)C(=O)N[C@@H](CC(C)C)[C@@H](O)C[C@@H](C)C(=O)N[C@H](C(=O)NCC(F)(F)F)C(C)C` [tert-butyl (S)-2-((S)-2-((3,5-dimethyl-1H-pyrazol-1-yl)methyl)butanamido)-3-((4S,5S,7R)-5-hydroxy-2,7-dimethyl-8-((S)-3-methyl-1-oxo-1-(2,2,2-trifluoroethylamino)butan-2-ylamino)-8-oxooctan-4-ylamino)-3-oxopropylcarbamate], the Ki on memapsin 2 and at Cathepsin D was less than 100 nM throughout. For the same compound, the IC50 in the test with Aβ production fell in the range of 6000 to 100000 nM.

As to `Cc1csc(C[C@H](C)C(=O)N[C@@H](CNS(C)(=O)=O)C(=O)N[C@@H](CC(C)C)[C@@H](O)C[C@@H](C)C(=O)N[C@H](C(=O)NCC(C)C)C(C)C)n1` [(2R,4S,5S)-4-hdroxy-N-((S)-1-(isobutylamino)-3-methyl-1-oxobutan-2-yl)-2,7-dimethyl-5-((S)-2-((S)-2-methyl-3-(4-methylthiazol-2-yl)propanamido)-3-(methylsulfonamido)propanamido)octanamide], the Ki on memapsin 2 and on Cathepsin D was less than 100 nM each time. In addition, the IC50 in the test on Aβ production is less than 6000 nM.

Consider `Cc1csc(C[C@H](C)C(=O)N[C@@H](CNC(=O)O[C@@H]2CCOC2)C(=O)N[C@@H](CC(C)C)[C@@H](O)C[C@@H](C)C(=O)N[C@H](C(=O)NCC(C)C)C(C)C)n1` [(R)-tetrahydrofuran-3-yl (S)-3-((4S,5S,7R)-5-hydroxy-8-((S)-1-(isobutylamino)-3-methyl-1-oxobutan-2-ylamino)2,7-dimethyl-8-oxooctan-4-ylamino)-2-((S)-2-methyl-3-(4-methylthiazol-2-yl)propanamido)-3-oxopropylcarbamate], for which the Ki on memapsin 2 and on Cathepsin D was less than 100 nM each time. Also, the IC50 with Aβ production was less than 6000 nM.

Consider `COC(Cn1nc(C)cc1C)C(=O)N[C@@H](CNC(=O)OC(C)(C)C)C(=O)N[C@@H](CC(C)C)[C@@H](O)C[C@@H](C)C(=O)N[C@H](C(=O)NCC(C)C)C(C)C` (stereo partly drawn) [tert-butyl (2S)-2-(3-(3,5-dimethyl-1H-pyrazol-1-yl)-2-methoxypropanamido)-3-((4S,5S,7R)-5-hydroxy-8-((S)-1-(isobutylamino)-3-methyl-1-oxobutan-2-ylamino)-2,7-dimethyl-8-oxooctan-4-ylamino)-3-oxopropylcarbamate], for which the Ki on memapsin 2 is 100 to 600 nM; at Cathepsin D, less than 100 nM. The IC50 with Aβ production was more than 100000 nM.

For `Cc1cc(C)n(C[C@H](C)C(=O)N[C@@H](CNC(=O)O[C@H]2CCOC2)C(=O)N[C@@H](CC(C)C)[C@@H](O)C[C@@H](C)C(=O)N[C@H](C(=O)NCC(C)C)C(C)C)n1` [(S)-tetrahydrofuran-3-yl (S)-2-((S)-3-(3,5-dimethyl-1H-pyrazol-1-yl)-2-methylpropanamido)-3-((4S,5S,7R)-5-hydroxy-8-((S)-1-(isobutylamino)-3-methyl-1-oxobutan-2-ylamino)-2,7-dimethyl-8-oxooctan-4-ylamino)-3-oxopropylcarbamate], the Ki on memapsin 2 and at Cathepsin D was less than 100 nM in each case. For the same compound, in the test with Aβ production, the IC50 lay in the range of 6000 to 100000 nM.

Consider `COCCOC(=O)NC[C@H](NC(=O)[C@@H](C)Cc1nc(C)cs1)C(=O)N[C@@H](CC(C)C)[C@@H](O)C[C@@H](C)C(=O)N[C@H](C(=O)NCC(C)C)C(C)C` [2-methoxyethyl (S)-3-((4S,5S,7R)-5-hydroxy-8-((S)-1-(isobutylamino)-3-methyl-1-oxobutan-2-ylamino)-2,7-dimethyl-8-oxooctan-4-ylamino)-2-((S)-2-methyl-3-(4-methylthiazol-2-yl)propanamido)-3-oxopropylcarbamate], for which the Ki on memapsin 2 and on Cathepsin D was less than 100 nM in each case. This compound also registered an IC50 in the test with Aβ production of less than 6000 nM.

`CC[C@H](C[C@H](O)[C@H](CC(C)C)NC(=O)[C@H](CNC(=O)OC(C)(C)C)NC(=O)[C@@H](C)Cc1nc(C)cs1)C(=O)N[C@H](C(=O)NCC(C)C)C(C)C` [tert-butyl (S)-3-((4S,5S,7R)-5-hydroxy-7-((S)-1-(isobutylamino)-3-methyl-1-oxobutan-2-ylcarbamoyl)-2-methylnonan-4-ylamino)-2-((S)-2-methyl-3-(4-methylthiazol-2-yl)propanamido)-3-oxopropylcarbamate]: the Ki on memapsin 2 and at Cathepsin D was less than 100 nM in each case. Also, the IC50 in the test on Aβ production was less than 6000 nM.

On to `CC[C@@H](Cc1nc(C)cs1)C(=O)N[C@@H](CNC(=O)OC(C)(C)C)C(=O)N[C@@H](CC(C)C)[C@@H](O)C[C@@H](C)C(=O)N[C@H](C(=O)NCC(C)C)C(C)C` [tert-butyl (S)-3-((4S,5S,7R)-5-hydroxy-8-((S)-1-(isobutylamino)-3-methyl-1-oxobutan-2-ylamino)-2,7-dimethyl-8-oxooctan-4-ylamino)-2-((S)-2-((4-methylthiazol-2-yl)methyl)butanamido)-3-oxopropylcarbamate], for which the inhibitory constant (Ki) at memapsin 2 and on Cathepsin D was less than 100 nM throughout. The same compound displayed an IC50 with Aβ production of less than 6000 nM.

As for `Cc1csc(C[C@H](C)C(=O)N[C@@H](CN)C(=O)N[C@@H](CC(C)C)[C@@H](O)C[C@@H](C)C(=O)N[C@H](C(=O)NCC(C)C)C(C)C)n1` [(2R,4S,5S)-5-((S)-3-amino-2-((S)-2-methyl-3-(4-methylthiazol-2-yl)propanamido)propanamido)-4-hydroxy-N-((S)-1-(isobutylamino)-3-methyl-1-oxobutan-2-yl)-2,7-dimethyloctanamide], the inhibition constant Ki at memapsin 2 and at Cathepsin D was 100 to 600 nM in each case. Moreover, the IC50 in the test with Aβ production lay within 6000 to 100000 nM.

With `CC[C@@H](Cc1nc(C)cs1)C(=O)N[C@@H](CNC(=O)OC(C)C)C(=O)N[C@@H](CC(C)C)[C@@H](O)C[C@@H](C)C(=O)N[C@H](C(=O)NCC(C)C)C(C)C` [isoproyl (S)-3-((4S,5S,7R)-5-hydroxy-8-((S)-1-(isobutylamino)-3-methyl-1-oxobutan-2-ylamino)-2,7-dimethyl-8-oxooctan-4-ylamino)-2-((S)-2-((4-methylthiazol-2-yl)methyl)butanamido)-3-oxopropylcarbamate], the Ki at memapsin 2 and on Cathepsin D was less than 100 nM in each case. Besides, the 50% inhibitory concentration (IC50) with Aβ production is less than 6000 nM.

For the compound `COC(=O)NC[C@H](NC(=O)[C@@H](C)Cc1nc(C)cs1)C(=O)N[C@@H](CC(C)C)[C@@H](O)C[C@@H](C)C(=O)N[C@H](C(=O)NCC(C)C)C(C)C` [methyl (S)-3-((4S,5S,7R)-5-hydroxy-8-((S)-1-(isobutylamino)-3-methyl-1-oxobutan-2-ylamino)-2,7-dimethyl-8-oxooctan-4-ylamino)-2-((S)-2-methyl-3-(4-methylthiazol-2-yl)propanamido)-3-oxopropylcarbamate], the Ki at memapsin 2 and at Cathepsin D was less than 100 nM each time. Besides, the half-maximal inhibitory concentration (IC50) in the test on Aβ production is less than 6000 nM.

Turning to `Cc1csc(C[C@H](C)C(=O)N[C@@H](CNC(=O)OC(C)(C)C)C(=O)N[C@@H](CC(C)C)[C@@H](O)C[C@@H](C)C(=O)N[C@H](C(=O)NN(C)C)C(C)C)n1` [tert-butyl (S)-3-((4S,5S,7R)-8-((S)-1-(2,2-dimethylhydrazinyl)-3-methyl-1-oxobutan-2-ylamino)-5-hydroxy-2,7-dimethyl-8-oxooctan-4-ylamino)-2-((S)-2-methyl-3-(4-methylthiazol-2-yl)propanamido)-3-oxopropylcarbamate], the inhibition constant Ki was less than 100 nM at memapsin 2 and 100 to 600 nM on Cathepsin D. In the test on Aβ production, this compound registered an IC50 of less than 6000 nM.

Consider `Cc1csc(COC(=O)NC[C@H](NC(=O)[C@@H](C)Cc2nc(C)cs2)C(=O)N[C@@H](CC(C)C)[C@@H](O)C[C@@H](C)C(=O)N[C@H](C(=O)NCC(C)C)C(C)C)n1` [(4-methylthiazol-2-yl)methyl (S)-3-((4S,5S,7R)-5-hydroxy-8-((S)-1-(isobutylamino)-3-methyl-1-oxobutan-2-ylamino)-2,7-dimethyl-8-oxooctan-4-ylamino)-2-((S)-2-methyl-3-(4-methylthiazol-2-yl)propanamido)-3-oxopropylcarbamate], for which the Ki at memapsin 2 and at Cathepsin D was less than 100 nM in each case. In the test on Aβ production, this compound registered a 50% inhibitory concentration (IC50) of less than 6000 nM.
